Results reported in PubChem BioAssay (NCI).
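Interpolation was linear, between the two tested concentrations surrounding the appropriate level; five concentrations were tested over 48 hours in 96-well plates. Abbreviation: GI50, concentration required for 50% inhibition of growth. Definition used: TGI = concentration required for complete inhibition of growth.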

Tests used:
Test in all cases: NCI anticancer screen, dose series, 48 h
[1] = test system: RXF 393 renal
[2] = test system: A549 NSCLC
[3] = test system: NCI/ADR-RES ovarian
[4] = test system: SF-268 CNS
[5] = test system: SNB-19 CNS
[6] = test system: M14 melanoma
[7] = test system: HOP-92 NSCLC
[8] = test system: OVCAR-8 ovarian
[9] = test system: OVCAR-3 ovarian
[10] = test system: HOP-62 NSCLC
[11] = test system: OVCAR-5 ovarian
[12] = test system: DU-145 prostate
[13] = test system: HS 578T breast
[14] = test system: MDA-MB-435
[15] = test system: SF-539 CNS
[16] = test system: OVCAR-4 ovarian
[17] = test system: U251 CNS
[18] = test system: BT-549 breast
[19] = test system: K-562 leukemia
[20] = test system: HT29 colon
[21] = test system: TK-10 renal
[22] = test system: UO-31 renal
[23] = test system: SN12C renal
[24] = test system: SNB-75 CNS
[25] = test system: HCT-15 colon
[26] = test system: SK-MEL-5 melanoma
[27] = test system: 786-0 renal
[28] = test system: SF-295 CNS
[29] = test system: A498 renal
[30] = test system: MOLT-4 leukemia
[31] = test system: SR leukemia
[32] = test system: EKVX NSCLC
[33] = test system: MALME-3M melanoma
[34] = test system: SW-620 colon
[35] = test system: CCRF-CEM leukemia
[36] = test system: CAKI-1 renal
[37] = test system: ACHN renal
[38] = test system: LOX IMVI melanoma
[39] = test system: RPMI-8226 leukemia
[40] = test system: NCI-H460 lung
[41] = test system: IGROV1 ovarian
[42] = test system: HCC-2998 colon
[43] = test system: KM12 colon
[44] = test system: NCI-H226 lung
[45] = test system: COLO 205 colon
[46] = test system: PC-3 prostate
[47] = test system: SK-OV-3 ovarian
[48] = test system: MCF7 breast
[49] = test system: T-47D breast
[50] = test system: SK-MEL-2 melanoma
[51] = test system: UACC-257 melanoma
[52] = test system: HCT-116 colon
[53] = test system: HL-60(TB) leukemia
[54] = test system: NCI-H522 lung
[55] = test system: SK-MEL-28 melanoma
[56] = test system: MDA-MB-231 breast
[57] = test system: UACC-62 melanoma

With C#C[C@]1(O)CC[C@H]2[C@@H]3CC=C4c5sc(Nc6ccc(Cl)cn6)nc5CC[C@]4(C)[C@H]3CC[C@@]21C the GI50 [1] was 0.642 µM, the TGI [1] was 2.25 µM and the GI50 [2] was 6.4 µM. It also gave a TGI [2] of over 100 µM, a GI50 [3] of 15.9 µM and a TGI [3] of over 100 µM. The GI50 [4] was 4.35 µM, the TGI [4] was over 100 µM and the GI50 [5] was 4.95 µM. The TGI [5] was over 100 µM, the GI50 [6] was 3.12 µM and the TGI [6] was over 100 µM. It also gave a GI50 [7] of 3.45 µM, a TGI [7] of 73.4 µM and a GI50 [8] of 6.32 µM. It also gave a TGI [8] of over 100 µM, a GI50 [9] of 7.66 µM and a TGI [9] of over 100 µM. The GI50 [10] was 3.31 µM, the TGI [10] was over 100 µM and the GI50 [11] was 24.1 µM. It also gave a TGI [11] of over 100 µM, a GI50 [12] of over 100 µM and a TGI [12] of over 100 µM. The GI50 [13] was 2.17 µM, the TGI [13] was 6.53 µM and the GI50 [14] was 3.73 µM. For the same compound, the TGI [14] was over 100 µM, the GI50 [15] was 1.62 µM and the TGI [15] was 4.03 µM. It also gave a GI50 [16] of 7.73 µM, a TGI [16] of over 100 µM and a GI50 [17] of 2.66 µM. It also gave a TGI [17] of over 100 µM, a GI50 [18] of 2.88 µM and a TGI [18] of 25.2 µM. The GI50 [19] was 3.34 µM, the TGI [19] was over 100 µM and the GI50 [20] was 6.83 µM. For the same compound, the TGI [20] was over 100 µM, the GI50 [21] was over 100 µM and the TGI [21] was over 100 µM. It also gave a GI50 [22] of 2.96 µM, a TGI [22] of over 100 µM and a GI50 [23] of over 100 µM. The TGI [23] was over 100 µM, the GI50 [24] was 4.07 µM and the TGI [24] was over 100 µM. It also gave a GI50 [25] of 3.03 µM, a TGI [25] of over 100 µM and a GI50 [26] of 79.5 µM. The TGI [26] was over 100 µM, the GI50 [27] was 1.56 µM and the TGI [27] was 3.42 µM. For the same compound, the GI50 [28] was 1.82 µM, the TGI [28] was 3.75 µM and the GI50 [29] was 2.15 µM. It also gave a TGI [29] of 4.75 µM, a GI50 [30] of 2.79 µM and a TGI [30] of over 100 µM. It also gave a GI50 [31] of 3.08 µM, a TGI [31] of over 100 µM and a GI50 [32] of 3.51 µM. The TGI [32] was over 100 µM, the GI50 [33] was 8.97 µM and the TGI [33] was over 100 µM. For the same compound, the GI50 [34] was 4.77 µM, the TGI [34] was over 100 µM and the GI50 [35] was 0.0721 µM. The TGI [35] was over 100 µM, the GI50 [36] was 3.48 µM and the TGI [36] was over 100 µM. For the same compound, the GI50 [37] was 5.07 µM, the TGI [37] was over 100 µM and the GI50 [38] was 2.1 µM. For the same compound, the TGI [38] was 4.33 µM, the GI50 [39] was 1.03 µM and the TGI [39] was 4.18 µM. The GI50 [40] was 3.95 µM, the TGI [40] was over 100 µM and the GI50 [41] was 9.14 µM. For the same compound, the TGI [41] was over 100 µM, the GI50 [42] was 66.8 µM and the TGI [42] was over 100 µM. The GI50 [43] was 4.04 µM, the TGI [43] was over 100 µM and the GI50 [44] was 7.41 µM. It also gave a TGI [44] of over 100 µM, a GI50 [45] of 23.5 µM and a TGI [45] of over 100 µM. It also gave a GI50 [46] of 1.68 µM, a TGI [46] of 6.91 µM and a GI50 [47] of 3.44 µM. The TGI [47] was 13.4 µM, the GI50 [48] was 1.8 µM and the TGI [48] was 4.47 µM. The GI50 [49] was 61.2 µM, the TGI [49] was over 100 µM and the GI50 [50] was 3.83 µM. It also gave a TGI [50] of over 100 µM, a GI50 [51] of 2.49 µM and a TGI [51] of 6.65 µM. For the same compound, the GI50 [52] was 3.47 µM, the TGI [52] was over 100 µM and the GI50 [53] was 3.5 µM. It also gave a TGI [53] of over 100 µM, a GI50 [54] of 10.5 µM and a TGI [54] of over 100 µM. It also gave a GI50 [55] of 1.72 µM, a TGI [55] of 3.68 µM and a GI50 [56] of 3.34 µM. The TGI [56] was over 100 µM, the GI50 [57] was 3.23 µM and the TGI [57] was over 100 µM.
